Results: DBAASP
≈ marks a conversion by molar mass, not a printed value. Where “and” joins values, the source holds several entries; their conditions need not be identical. Identical values can stand only once.

How the values were obtained:
Assay in all cases: ≥ marks a high value that may be exact or a test limit, other limits are often not marked, values filed in µg/mL are converted to µM
Escherichia coli UB1005 = system: Escherichia coli UB1005
Escherichia coli 55B5 = system: Escherichia coli 55B5
Salmonella typhimurium = system: Salmonella typhimurium
Pseudomonas aeruginosa = system: Pseudomonas aeruginosa
[1] = system: Streptococcus sanguinis NY101
[2] = system: Streptococcus mitis ATCC 903
[3] = system: Streptococcus mutans UA159
[4] = system: Pseudomonas aeruginosa PAK
[5] = system: Streptococcus gordonii Challis DL1
Staphylococcus aureus = system: Staphylococcus aureus
[6] = system: Pseudomonas aeruginosa NBRC 13275
[7] = system: Escherichia coli DH5alpha
[8] = system: Staphylococcus aureus NBRC 13276
Listeria grayi DSM 20601 = system: Listeria grayi DSM 20601
[9] = system: Micrococcus luteus DSM 20030
[10] = system: Listeria monocytogenes DSM 20600
[11] = system: Listeria fleischmannii DSM 24998
Escherichia coli D31 = system: Escherichia coli D31
[12] = system: Staphylococcus aureus ATCC 25923
Bacillus subtilis C971 = system: Bacillus subtilis C971
[13] = system: Salmonella typhimurium C587
[14] = system: Pseudomonas aeruginosa H187
[15] = system: Staphylococcus aureus SAP 0017
[16] = system: Pseudomonas aeruginosa H188
Escherichia coli DC2 = system: Escherichia coli DC2
[17] = system: Corynebacterium xerosis C875
[18] = system: Staphylococcus epidermidis C621
[19] = system: Enterococcus faecalis C625
[20] = system: Salmonella typhimurium C610
Escherichia coli ML-35p = system: Escherichia coli ML-35p
[21] = system: Staphylococcus aureus ATCC 33591
Candida albicans 820 = system: Candida albicans 820
[22] = system: Listeria monocytogenes EGD
[23] = system: Bacillus subtilis KCCM 11495
[24] = system: Escherichia coli KCCM 11569

CC[C@H](C)[C@H](NC(=O)[C@H](C)N)C(=O)N[C@@H](Cc1cnc[nH]1)C(=O)N[C@@H](CCCCN)C(=O)N[C@@H](CC(C)C)C(=O)N[C@@H](C)C(=O)N[C@@H](Cc1cnc[nH]1)C(=O)N[C@@H](CCCCN)C(=O)N[C@@H](CC(C)C)C(=O)N[C@@H](CC(C)C)C(=O)N1CCC[C@H]1C(=O)N[C@@H](CCCCN)C(=O)N[C@H](C(=O)N[C@@H](CC(C)C)C(=O)N[C@@H](CCCN=C(N)N)C(=O)N[C@@H](C)C(=O)N[C@H](C(=O)N[C@@H](CCCCN)C(=O)N[C@@H](CCCCN)C(=O)N[C@@H](CC(C)C)C(=O)N[C@@H](C)C(=O)N[C@@H](CC(N)=O)C(=O)O)C(C)C)[C@@H](C)O [AIHKLAHKLLPKTLRAVKKLAN]
MIC (Escherichia coli UB1005): 20.5 µM (≈ 50.5 µg/mL)
MIC (Escherichia coli 55B5): 25 µM (≈ 61.6 µg/mL)
MIC (Salmonella typhimurium): 15.5 µM (≈ 38.2 µg/mL)
MIC (Pseudomonas aeruginosa): 20.5 µM (≈ 50.5 µg/mL)

CC[C@H](C)[C@H](NC(=O)[C@H](C)N)C(=O)N[C@@H](Cc1cnc[nH]1)C(=O)N[C@@H](CCCCN)C(=O)N[C@@H](CC(C)C)C(=O)N[C@@H](C)C(=O)N[C@@H](Cc1cnc[nH]1)C(=O)N[C@@H](CCCCN)C(=O)N[C@H](C(=O)N[C@@H](CC(C)C)C(=O)N[C@@H](CCCCN)C(=O)N[C@@H](CCCCN)C(=O)N[C@H](C(=O)N[C@@H](CC(C)C)C(=O)N[C@@H](CCCN=C(N)N)C(=O)N[C@@H](C)C(=O)N[C@H](C(=O)N[C@@H](CCCCN)C(=O)N[C@@H](CCCCN)C(=O)N[C@@H](CC(C)C)C(=O)N[C@@H](C)C(=O)N[C@@H](CC(N)=O)C(=O)O)C(C)C)[C@@H](C)O)[C@@H](C)O [AIHKLAHKTLKKTLRAVKKLAN]
MIC (Escherichia coli UB1005): 15.5 µM (≈ 38.5 µg/mL)
MIC (Escherichia coli 55B5): 14.5 µM (≈ 36 µg/mL)
MIC (Salmonella typhimurium): 10.5 µM (≈ 26.1 µg/mL)
MIC (Pseudomonas aeruginosa): 12.5 µM (≈ 31 µg/mL)

CC[C@H](C)[C@H](NC(=O)CNC(=O)CNC(=O)CNC(=O)[C@H](Cc1ccccc1)NC(=O)[C@H](CCCN=C(N)N)NC(=O)[C@H](Cc1cnc[nH]1)NC(=O)[C@@H](NC(=O)[C@H](Cc1ccccc1)NC(=O)[C@H](Cc1cnc[nH]1)NC(=O)[C@H](CCCCN)NC(=O)[C@@H](NC(=O)[C@@H](N)Cc1ccccc1)[C@@H](C)CC)[C@@H](C)CC)C(=O)N[C@@H](CCCCN)C(=O)N[C@@H](CCC(N)=O)C(=O)N[C@@H](CC(C)C)C(=O)N[C@@H](CC(C)C)C(=O)N[C@@H](Cc1cnc[nH]1)C(=O)N[C@@H](Cc1ccccc1)C(=O)N[C@@H](Cc1ccccc1)C(=O)N[C@@H](CCC(N)=O)C(=O)N[C@@H](CCCN=C(N)N)C(=O)N[C@@H](Cc1ccccc1)C(N)=O [FIKHFIHRFGGGIKQLLHFFQRF]
MIC [1]: 11.1 µM (≈ 32 µg/mL)
MIC [2]: 5.57 µM (≈ 16 µg/mL)
MIC [3]: 2.78 µM (≈ 8 µg/mL)
MIC [4]: ≥ 43.5 µM
MIC [5]: 11.1 µM (≈ 32 µg/mL)
MIC (Staphylococcus aureus): 21.7 µM (≈ 62.5 µg/mL)

CC[C@H](C)[C@H](NC(=O)CNC(C)=O)C(=O)NCC(=O)N[C@@H](CCCCN)C(=O)N[C@@H](Cc1ccccc1)C(=O)N[C@@H](CC(C)C)C(=O)N[C@@H](Cc1cnc[nH]1)C(=O)N[C@@H](CO)C(=O)N[C@@H](C)C(=O)N[C@@H](CCCCN)C(=O)N[C@@H](CCCCN)C(=O)N[C@@H](Cc1ccccc1)C(=O)NCC(=O)N[C@@H](CCCCN)C(=O)N[C@@H](C)C(=O)N[C@@H](Cc1ccccc1)C(=O)N[C@H](C(=O)NCC(=O)N[C@@H](CCC(=O)O)C(=O)N[C@H](C(=O)N[C@@H](CCSC)C(=O)N[C@@H](CC(N)=O)C(=O)N[C@@H](CO)C(N)=O)[C@@H](C)CC)C(C)C [GIGKFLHSAKKFGKAFVGEIMNS]
MIC [6]: 25 µM (≈ 62.7 µg/mL)
MIC [7]: ≥ 50 µM
MIC [8]: ≥ 200 µM

CC[C@H](C)[C@H](N)C(=O)N[C@@H](Cc1ccccc1)C(=O)N[C@@H](CCCCN)C(=O)N[C@@H](C)C(=O)N[C@H](C(=O)N[C@@H](Cc1c[nH]c2ccccc12)C(=O)N[C@@H](CO)C(=O)NCC(=O)N[C@H](C(=O)N[C@@H](CCCCN)C(=O)N[C@@H](CO)C(=O)N[C@@H](CC(C)C)C(=O)N[C@@H](Cc1ccccc1)C(=O)O)[C@@H](C)CC)[C@@H](C)CC [IFKAIWSGIKSLF]
MIC (Listeria grayi DSM 20601): 2 µM (≈ 3.02 µg/mL)
MIC [9]: 2 µM (≈ 3.02 µg/mL)
MIC [10]: 2 µM (≈ 3.02 µg/mL)
MIC [11]: 2 µM (≈ 3.02 µg/mL)
MIC (Escherichia coli D31): 15 µM (≈ 22.6 µg/mL)

CC[C@H](C)[C@H](NC(=O)[C@H](C)NC(=O)[C@H](CCCCN)NC(=O)[C@H](CC(C)C)NC(=O)[C@H](C)NC(=O)[C@@H](NC(=O)[C@H](Cc1cnc[nH]1)NC(=O)[C@H](CC(C)C)NC(=O)[C@@H](NC(=O)[C@@H](NC(=O)[C@H](CCCCN)NC(=O)[C@@H](NC(=O)[C@H](C)NC(=O)[C@@H](NC(=O)[C@H](CCCCN)NC(=O)[C@H](Cc1ccccc1)NC(=O)[C@@H](NC(=O)[C@H](CCCCN)NC(=O)[C@H](CC(C)C)NC(=O)[C@H](Cc1ccccc1)NC(=O)[C@H](CO)NC(=O)[C@H](CCCCN)NC(=O)[C@H](Cc1c[nH]c2ccccc12)NC(=O)[C@H](CCCCN)NC(C)=O)[C@@H](C)O)C(C)C)C(C)C)[C@@H](C)O)C(C)C)[C@@H](C)O)C(=O)N[C@@H](CO)C(=O)N[C@@H](CO)C(N)=O [KWKSFLKTFKVAVKTVLHTALKAISS]
MIC [12]: 5.46 µM (≈ 16.2 µg/mL)
MIC (Bacillus subtilis C971): 0.853 µM (≈ 2.54 µg/mL)
MIC [13]: 10.9 µM (≈ 32.4 µg/mL)
MIC [14]: 3.44 µM (≈ 10.2 µg/mL)
MIC [15]: 4.33 µM (≈ 12.9 µg/mL)
MIC [16]: 6.89 µM (≈ 20.5 µg/mL)
MIC (Escherichia coli DC2): 1.36 µM (≈ 4.06 µg/mL)
MIC (Escherichia coli UB1005): 2.18 µM (≈ 6.49 µg/mL)
MIC [17]: 0.443 µM (≈ 1.32 µg/mL)
MIC [18]: 2.73 µM (≈ 8.11 µg/mL)
MIC [19]: 6.89 µM (≈ 20.5 µg/mL)
MIC [20]: 1.71 µM (≈ 5.07 µg/mL)

CC[C@H](C)[C@@H]1NC(=O)[C@H](CC(N)=O)NC(=O)[C@@H]2CSSC[C@@H]3NC(=O)[C@H](CCCN=C(N)N)NC(=O)[C@@H](NC(=O)[C@@H](NC(=O)[C@@H](N)CCCN=C(N)N)[C@@H](C)O)CSSC[C@@H](C(=O)N[C@@H](CCCN=C(N)N)C(=O)O)NC(=O)[C@H](CSSC[C@H](NC(=O)[C@H](CCCN=C(N)N)NC(=O)CNC(=O)[C@H](CC(C)C)NC(=O)[C@H](CCCN=C(N)N)NC3=O)C(=O)N[C@@H](CO)C(=O)N[C@@H](CCCN=C(N)N)C(=O)N[C@@H](CCCN=C(N)N)C(=O)N[C@@H](CCC(=O)O)C(=O)N[C@@H](CO)C(=O)N[C@@H](Cc3ccc(O)cc3)C(=O)N[C@@H](CO)C(=O)NCC(=O)N[C@@H](CO)C(=O)N2)NC(=O)[C@H](CC(C)C)NC(=O)[C@H](CO)NC(=O)[C@H](Cc2ccc(O)cc2)NC(=O)[C@H]([C@@H](C)CC)NC(=O)[C@H](CCCN=C(N)N)NC(=O)CNC(=O)[C@H](CC(N)=O)NC1=O [RTCRCRLGRCSRRESYSGSCNINGRIYSLCCR]
MIC (Escherichia coli ML-35p): 2 µM and 3.1 µM
MIC [21]: 4.5 µM and 7.8 µM
MIC (Candida albicans 820): 2.6 µM and 3.8 µM
MIC [22]: 1.2 µM and 1.9 µM

CC(C)C[C@H](NC(=O)CNC(=O)[C@H](Cc1cnc[nH]1)NC(=O)[C@H](Cc1cnc[nH]1)NC(=O)[C@H](CC(C)C)NC(=O)[C@H](CC(C)C)NC(=O)[C@H](C)NC(=O)[C@H](CC(N)=O)NC(=O)[C@H](CC(C)C)NC(=O)[C@@H](N)Cc1c[nH]c2ccccc12)C(=O)N[C@@H](CC(N)=O)C(=O)N[C@@H](CS)C(=O)N[C@@H](C)C(N)=O [WLNALLHHGLNCA]
MIC [23]: ≥ 43.8 µM
MIC [24]: ≥ 43.8 µM
